# Experimental data taken from PubChem BioAssay (NCI).
#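 Following 48 hours of exposure in 96-well plates, responses at five concentrations were used to interpolate endpoints linearly. Abbreviation: GI50, concentration required for 50% inhibition of growth. TGI denotes the concentration required for complete inhibition of growth.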
# Legend:
# Assay in all cases: NCI-60 cell line screen, 48 h
# [1] = system: OVCAR-5 ovarian
# [2] = system: NCI-H23 lung
# [3] = system: UACC-62 melanoma
# [4] = system: NCI-H226 lung
# [5] = system: MDA-MB-435
# [6] = system: ACHN renal
# [7] = system: SF-539 CNS
# [8] = system: SK-MEL-28 melanoma
# [9] = system: OVCAR-3 ovarian
# [10] = system: SN12C renal
# [11] = system: MDA-MB-231 breast
# [12] = system: UO-31 renal
# [13] = system: M14 melanoma
# [14] = system: HOP-92 NSCLC
# [15] = system: A498 renal
# [16] = system: MOLT-4 leukemia
# [17] = system: COLO 205 colon
# [18] = system: SR leukemia
# [19] = system: SK-OV-3 ovarian
# [20] = system: BT-549 breast
# [21] = system: NCI-H460 lung
# [22] = system: TK-10 renal
# [23] = system: SF-295 CNS
# [24] = system: KM12 colon
# [25] = system: CCRF-CEM leukemia
# [26] = system: SK-MEL-2 melanoma
# [27] = system: CAKI-1 renal
# [28] = system: SF-268 CNS
# [29] = system: HOP-62 NSCLC
# [30] = system: UACC-257 melanoma
# [31] = system: SW-620 colon
# [32] = system: PC-3 prostate
# [33] = system: U251 CNS
# [34] = system: SK-MEL-5 melanoma
# [35] = system: HCT-116 colon
# [36] = system: RPMI-8226 leukemia
# [37] = system: MCF7 breast
# [38] = system: MALME-3M melanoma
# [39] = system: 786-0 renal
# [40] = system: OVCAR-8 ovarian
smiles,measurement,setting,value
CC(=O)O[C@H]1CC[C@]2(C)[C@H]3CC=C4[C@@H]5CC(C)(C)CC[C@]5(C(=O)NCCNCCNCCN)CC[C@@]4(C)[C@]3(C)CC[C@H]2C1(C)C,GI50,[1],1.67 µM
same,TGI,[1],3.13 µM
same,GI50,[2],1.8 µM
same,TGI,[2],3.57 µM
same,GI50,[3],1.74 µM
same,TGI,[3],3.18 µM
same,GI50,[4],2.18 µM
same,TGI,[4],4.99 µM
same,GI50,[5],1.67 µM
same,TGI,[5],3.1 µM
same,GI50,[6],1.75 µM
same,TGI,[6],3.14 µM
same,GI50,[7],1.69 µM
same,TGI,[7],3.17 µM
same,GI50,[8],1.74 µM
same,TGI,[8],3.21 µM
same,GI50,[9],1.76 µM
same,TGI,[9],3.24 µM
same,GI50,[10],1.78 µM
same,TGI,[10],3.37 µM
same,GI50,[11],1.53 µM
same,TGI,[11],3.04 µM
N#Cc1cc2c(N)ncnc2nc1N1CCCC1,GI50,[12],45.7 µg/mL
same,GI50,[13],48.4 µg/mL
same,GI50,[14],57.2 µg/mL
same,GI50,[15],36.9 µg/mL
same,GI50,[16],85.2 µg/mL
same,GI50,[17],83.6 µg/mL
same,GI50,[18],66.4 µg/mL
same,GI50,[19],54.4 µg/mL
same,GI50,[20],49.3 µg/mL
c1ccc(CSCCNCCN(CCNCCSCc2ccccc2)CCNCCSCc2ccccc2)cc1,GI50,[21],1.37 µM
same,TGI,[21],2.71 µM
same,GI50,[22],1.59 µM
same,TGI,[22],2.94 µM
same,GI50,[12],1.78 µM
same,TGI,[12],3.23 µM
same,GI50,[1],1.76 µM
same,TGI,[1],3.19 µM
same,GI50,[23],4.17 µM
same,TGI,[23],20.5 µM
same,GI50,[13],1.31 µM
same,TGI,[13],2.65 µM
same,GI50,[3],1.77 µM
same,TGI,[3],3.16 µM
same,GI50,[24],1.1 µM
same,TGI,[24],2.41 µM
same,GI50,[25],1.54 µM
same,TGI,[25],3.06 µM
same,GI50,[26],1.6 µM
same,TGI,[26],3.11 µM
same,GI50,[27],3.35 µM
same,TGI,[27],14.3 µM
same,GI50,[4],1.78 µM
same,TGI,[4],3.28 µM
same,GI50,[28],1.53 µM
same,TGI,[28],2.96 µM
same,GI50,[29],1.49 µM
same,TGI,[29],2.83 µM
same,GI50,[30],1.77 µM
same,TGI,[30],3.31 µM
same,GI50,[5],5.37 µM
same,TGI,[5],18.9 µM
same,GI50,[31],1.78 µM
same,TGI,[31],3.21 µM
same,GI50,[32],1.66 µM
same,TGI,[32],3.21 µM
same,GI50,[7],2.14 µM
same,TGI,[7],3.58 µM
same,GI50,[33],1.52 µM
same,TGI,[33],2.85 µM
same,GI50,[34],1.72 µM
same,TGI,[34],3.12 µM
same,GI50,[35],0.183 µM
same,TGI,[35],0.34 µM
same,GI50,[9],4.23 µM
same,TGI,[9],18.3 µM
same,GI50,[36],0.337 µM
same,TGI,[36],1.03 µM
same,GI50,[37],0.363 µM
same,TGI,[37],0.803 µM
same,GI50,[10],1.44 µM
same,TGI,[10],2.77 µM
same,GI50,[38],1.84 µM
same,TGI,[38],3.41 µM
same,GI50,[11],1.56 µM
same,TGI,[11],2.94 µM
same,GI50,[19],1.94 µM
same,TGI,[19],3.43 µM
same,GI50,[39],1.53 µM
same,TGI,[39],2.94 µM
same,GI50,[20],1.8 µM
same,TGI,[20],3.22 µM
same,GI50,[40],1.57 µM
same,TGI,[40],3.02 µM
